From PubChem BioAssay AID1648 (Sanford-Burnham Center for Chemical Genomics, 2009) come the findings set out here.

Each structure is given as a SMILES string. Active and inactive are the calls of the source. The rule behind the calls is not given here.

The assay deals with Serine/threonine-protein kinase mTOR (Homo sapiens) (UniProt P42345). As to the kind of experiment: mTOR FRB domain ligand binding – biophysical, NMR (AID 1648). The following applies: NMR binding to FRB domain, chemical shift.
Chain of Serine/threonine-protein kinase mTOR (Homo sapiens) (P42345 2015-2114): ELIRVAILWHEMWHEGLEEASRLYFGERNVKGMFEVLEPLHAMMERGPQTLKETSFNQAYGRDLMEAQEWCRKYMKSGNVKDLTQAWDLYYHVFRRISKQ
With `Cc1ccc(=O)[nH]c1`, the Kd (commonly the constant that tells how readily two partners part at equilibrium) was > 4 mM (inactive).
For the compound `Cc1cc(C)n(CCC(=O)O)n1`, the Kd is > 4 mM (inactive).
To `O=C(COc1ccccc1O)NCCO` belongs > 4 mM (inactive); to `O=C(NN1CCOCC1)c1ccccc1F`, > 4 mM (inactive).
Regarding `Nc1nc(SCc2ccccc2)ns1`, the Kd was > 4 mM (inactive).
To `CSc1n[nH]c(NCc2cccs2)n1` belongs > 4 mM (inactive); to `OCc1ccc(-n2ccnc2)cc1`, > 4 mM (inactive); to `CCC[C@@H]1CCCCN1`, > 4 mM (inactive).
As for `c1cncc(Cn2cccc2)c1`, the Kd was > 4 mM (inactive).
To `ON=c1ccc2nc3ccccc3nc2cc1` belongs > 4 mM (inactive).
To `O=c1[nH]cc(S(=O)(=O)N2CCc3ccccc32)c(=O)[nH]1` belongs > 4 mM (inactive); to `COc1cc([C@@H]2c3cc4c(cc3[C@H](O)[C@H]3COC(=O)[C@@H]23)OCO4)cc(OC)c1OC`, > 4 mM (inactive); to `COc1ccc2c(c1)[n+](=O)c(C(C)=O)c(C)n2[O-]`, > 4 mM (inactive).
To `CC(CC(O)C1OC1(C)C)[C@@H]1CCC2(C)C3=CCC4C(C)(C)C(=O)CCC4(C)C3CC[C@@]12C` (stereo partly drawn) belongs > 4 mM (inactive).
For `NC1=NC(=O)/C(=C\c2ccccc2)S1`, the Kd is > 4 mM (inactive).
`CN1C2CC[C@@H]1CC(OC(=O)[C@H](CO)c1ccccc1)C2` (stereo partly drawn): the Kd was > 4 mM (inactive).
Turning to `COc1ccc2c(c1)=C(c1sc(N)nc1O)C(=O)N=2`, the Kd was > 4 mM (inactive).
In the case of `COc1ccc(-c2c(O)c3c(OC)c4c(cc3oc2=O)OC(C)(C)CC4)cc1`, the Kd was > 4 mM (inactive).
Regarding `COc1ccc(Cl)cc1-c1nc(-c2ccncc2)no1`, the Kd was > 4 mM (inactive).
Consider `CCN1CCn2c1nc(N1CCOCC1)nc2=O`, for which the Kd was > 4 mM (inactive).
To `CC12CC[C@H](CC1=O)C2(C)C` belongs > 4 mM (inactive); to `NS(=O)(=O)c1ccc2c3c(cccc13)C(=O)N2`, > 4 mM (inactive).
To `O=C1NC(=S)S/C1=C/c1ccncc1` belongs > 4 mM (inactive); to `COc1ccc(N2C(=N)C(C)(C)NC2=O)cc1`, > 4 mM (inactive); to `Cn1cc(C(=O)N/N=C/c2ccccc2)ccc1=O`, > 4 mM (inactive).
To `CCC(C)OC1CCS(=O)(=O)C1` (stereo not drawn) belongs > 4 mM (inactive); to `Cn1c(CN2CC(c3ccccc3)CC2=O)n[nH]c1=S` (stereo not drawn), > 4 mM (inactive).
Take `O=C(Cc1ccccc1)Nc1c[nH]c(=O)[nH]c1=O`: the Kd was > 4 mM (inactive).
To `O=C1COc2ccccc2C(=O)N1` belongs > 4 mM (inactive).
Regarding `Cc1nc(-c2ccccc2)ncc1C(=O)O`, the Kd was > 4 mM (inactive).
For the compound `Cc1nn(CC(=O)N2CCCCC2)c(=O)c2ccccc12`, the Kd is > 4 mM (inactive).
`NC(=O)CN1CC(c2ccccc2)CC1=O` (stereo not drawn): the Kd was > 4 mM (inactive).
To `Cn1c(=O)n(-c2cccc(Cl)c2)c(=O)n1C` belongs > 4 mM (inactive); to `CC1=C(C(N)=O)C(c2ccccc2)NC(=O)N1` (stereo not drawn), > 4 mM (inactive).
To `Nc1nc(=S)n2c(n1)oc1ccccc12` belongs > 4 mM (inactive).
To `CCN1CCC(NC2CCCCNC2=O)CC1` (stereo not drawn) belongs > 4 mM (inactive); to `CC(=O)c1cc2c(s1)SCC(=O)N2`, > 4 mM (inactive); to `NC(=O)c1cccnc1Oc1ccccc1`, > 4 mM (inactive).
Regarding `Cc1c(C(=O)Nc2ccncc2)oc2c1C(=O)CC(C)(C)C2`, the Kd is > 4 mM (inactive).
On to `Oc1ccccc1N1CCCC1`, for which the Kd is > 4 mM (inactive).
On to `N[C@@H](CCC(=O)N[C@@H](CS)C(=O)NCC(=O)O)C(=O)O`, for which the Kd is > 4 mM (inactive).
As to `O=C(Oc1ccc2c(c1)CCC2)N1CCOCC1`, the Kd was > 4 mM (inactive).
For the compound `O=C(O)c1cccc(N2C(=O)C3CC=CCC3C2=O)c1` (stereo not drawn), the Kd is > 4 mM (inactive).
Consider `O=C1CCCc2c1nc(-c1ccccc1)n2O`, for which the Kd was > 4 mM (inactive).
To `Cc1ccc(CO)o1` belongs > 4 mM (inactive); to `Clc1ccc(-c2nnc3ccccn23)cc1`, > 4 mM (inactive).
To `CCC1C(=O)OCC1Cc1cncn1C` (stereo not drawn) belongs > 4 mM (inactive); to `NCC(O)c1ccc(O)cc1` (stereo not drawn), > 4 mM (inactive).
To `COc1c(-c2ccccc2)oc2c(OC)cccc2c1=O` belongs > 4 mM (inactive); to `Cn1cnc2nc3n(c2c1=O)CCC3`, > 4 mM (inactive); to `CC1(C)C(=O)C=C[C@@]2(C)C1CC(=O)[C@]1(C)C2CC[C@@]2(C)[C@H](c3ccoc3)OC(=O)[C@H]3O[C@]321` (stereo partly drawn), > 4 mM (inactive).
Consider `CC1=C(/C=C/C(C)=C/C=C/C(C)=C/C=C/C=C(C)/C=C/C=C(C)/C=C/C2=C(C)CCCC2(C)C)C(C)(C)CCC1`, for which the Kd is > 4 mM (inactive).
For `NC(=O)c1ccccc1N1CCCCC1`, the Kd was > 4 mM (inactive).
To `O=c1cc(-c2ccccc2)oc2cc(O)cc(O)c12` belongs > 4 mM (inactive); to `CN(c1ccccc1C(=O)N1CCOCC1)S(C)(=O)=O`, > 4 mM (inactive).
To `Cc1nc2ccc(C(=O)N3CCSCC3)cc2s1` belongs > 4 mM (inactive); to `NC(=O)Nc1cccc(C(F)(F)F)c1`, > 4 mM (inactive); to `Cc1ccc(N)nc1`, > 4 mM (inactive).
For the compound `NC1=NC(=O)/C(=C/c2cccs2)S1`, the Kd is > 4 mM (inactive).
To `COCCn1c(C)cc(O)cc1=O` belongs > 4 mM (inactive).
To `COc1ccc(-c2cc(=O)c3c(O)c(OC)c(O[C@H]4O[C@H](CO[C@@H]5O[C@@H](C)[C@H](O)[C@@H](O)[C@H]5O)[C@@H](O)[C@H](O)[C@H]4O)cc3o2)cc1` belongs > 4 mM (inactive); to `Nc1nc(-c2cccnc2)nn1C(=O)Cc1ccccc1`, > 4 mM (inactive); to `C=C(C)[C@H]1CC=C(C(=O)O)CC1`, > 4 mM (inactive).
For the compound `CC(O)c1nc2ccccc2[nH]1` (stereo not drawn), the Kd was > 4 mM (inactive).
As for `C=C1C2CC[C@@]3(C)[C@H](c4ccoc4)OC(=O)C[C@]13O[C@H]1CC(=O)C(C)(C)[C@H](C(O)C(=O)OC)[C@@]21C` (stereo partly drawn), the Kd was > 4 mM (inactive).
Take `COC(=O)c1ccc2ncccc2c1`: the Kd is > 4 mM (inactive).
To `CNc1nnc(CSc2nc(C)cc(C)n2)s1` belongs > 4 mM (inactive).
As for `C=C[C@@]1(C)CC(=O)[C@@]2(O)[C@](C)(O1)[C@@H](OC(C)=O)[C@@H](O)C1C(C)(C)CC[C@H](O)[C@@]12C` (stereo partly drawn), the Kd is > 4 mM (inactive).
`Cc1cc(C)nc(NC(N)=NCc2ccco2)n1`: the Kd was > 4 mM (inactive).
With `COc1cc2cc3c4cc(OC)c(OC)cc4cc[n+]3c(C)c2cc1OC`, the Kd was > 4 mM (inactive).
To `Cc1ccc(C)n1CCN1CCNCC1` belongs > 4 mM (inactive); to `O=C(Nc1ccon1)c1cccc(Cl)c1`, > 4 mM (inactive); to `Cc1occc1C(=O)Nc1ccc2c(c1)OCO2`, > 4 mM (inactive).
